Test systems include UO-31 renal; CAKI-1 renal; OVCAR-8 ovarian; U251 CNS; UACC-257 melanoma; NCI-H460 lung; HCT-116 colon; SK-OV-3 ovarian; SN12C renal; RXF 393 renal.
Experiment in all cases: inhibition of tumour cell growth, NCI panel, 48 h

This note sets out measurements from PubChem BioAssay (NCI).

Each structure is given as a SMILES string.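 Method: 48-hour compound exposure of cells in 96-well plates, five concentrations, linear interpolation of endpoints. Here, GI50 denotes the concentration required for 50% inhibition of growth. Definition used: TGI = concentration required for complete inhibition of growth.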

As for `COc1cc2c(cc1OCCCCC(=O)Nc1cc3c4ccccc4ccc3c3ccccc13)N=C[C@@H]1CCCN1C2=O`, the GI50 in the assay on UO-31 renal was 1.22 µM; with CAKI-1 renal, 3.44 µM; with OVCAR-8 ovarian, 7.27 µM; with U251 CNS, 8.02 µM; in the assay on UACC-257 melanoma, 7.77 µM; in the assay on NCI-H460 lung, 5.33 µM. Besides, the GI50 was 25.1 µM in the assay on HCT-116 colon, 34.3 µM with SK-OV-3 ovarian and 22.6 µM in the assay on SN12C renal. Also, the TGI is 13.1 µM in the assay with CAKI-1 renal; 20 µM in the assay with OVCAR-8 ovarian; above 100 µM with U251 CNS; 18.4 µM with UACC-257 melanoma; 51.5 µM in the assay with NCI-H460 lung; 88.8 µM with HCT-116 colon. In addition, the TGI is above 100 µM in the assay with SK-OV-3 ovarian and 89.3 µM with SN12C renal.
For the compound `COC(=O)[C@@]12C(=O)C=CC(=O)C1C1C(=CC2C)OC2OC3(CCCCC3)OC21` (some centres not stated), the TGI with UO-31 renal was determined as 30.5 µM; with CAKI-1 renal, 33.4 µM; with OVCAR-8 ovarian it was 30.9 µM; in the assay on U251 CNS it was 31.6 µM; with UACC-257 melanoma, 31.5 µM; with NCI-H460 lung it was 35.7 µM. For the same compound, the TGI was determined as 29.8 µM in the assay on HCT-116 colon, 33.9 µM with SK-OV-3 ovarian and 33.2 µM with SN12C renal.
For `Nc1ccccc1/C(O)=C1/CCOC1=O`, the TGI in the assay on UO-31 renal, with CAKI-1 renal, in the assay with OVCAR-8 ovarian, in the assay on U251 CNS, in the assay on UACC-257 melanoma and with NCI-H460 lung was above 100 µM in each case. In addition, the TGI in the assay on HCT-116 colon, with SK-OV-3 ovarian and with SN12C renal was above 100 µM each time.
For the compound `O=C(CC(=O)n1nc(-c2ccccc2)c(N=Nc2ccc(Cl)cc2)c1-c1ccccc1)Nc1ccc(Cl)cc1`, the TGI is above 100 µM with UO-31 renal; above 100 µM with CAKI-1 renal; above 100 µM with OVCAR-8 ovarian; above 100 µM in the assay with U251 CNS; above 100 µM with UACC-257 melanoma; above 59.4 µM in the assay on NCI-H460 lung. Besides, the TGI in the assay with HCT-116 colon was above 55.1 µM; in the assay with SK-OV-3 ovarian, above 100 µM; with SN12C renal, above 100 µM.
`C=C(C)[C@@H]1CC[C@]2(CO)CC[C@]3(C)[C@H](CC[C@@H]4[C@@]5(C)C=C(C#N)C(=O)C(C)(C)[C@@H]5CC[C@]43C)[C@@H]12`: the GI50 in the assay with UO-31 renal is 1.05 µM; in the assay with CAKI-1 renal it was 2.82 µM; with OVCAR-8 ovarian it was 1.88 µM; in the assay with U251 CNS it was 1.36 µM; in the assay on RXF 393 renal it was 1.13 µM; in the assay with UACC-257 melanoma, 1.29 µM. Besides, the GI50 in the assay on NCI-H460 lung is 1.37 µM; in the assay with SK-OV-3 ovarian, 2.72 µM; in the assay on SN12C renal, 1.17 µM. The TGI in the assay on UO-31 renal was 2.77 µM; with CAKI-1 renal it was 14.4 µM; in the assay with OVCAR-8 ovarian, 5.24 µM; in the assay with U251 CNS, 2.8 µM; with RXF 393 renal, 2.76 µM; in the assay with UACC-257 melanoma, 3.04 µM. In addition, the TGI in the assay with NCI-H460 lung was found to be 5.17 µM; in the assay with SK-OV-3 ovarian, 6.12 µM; with SN12C renal, 4.27 µM.
With `O=C1c2cccnc2-c2nc(-c3ccc(Cl)cc3)cc3c2c1nc1ccccc13`, the GI50 was 46.9 µM with UO-31 renal; 67.7 µM in the assay on CAKI-1 renal; 98.4 µM with OVCAR-8 ovarian; 9.24 µM in the assay with U251 CNS; 30.8 µM in the assay with RXF 393 renal; 57.7 µM with UACC-257 melanoma. Also, the GI50 is 37.2 µM in the assay on NCI-H460 lung, 28.4 µM in the assay on HCT-116 colon and 24 µM in the assay with SN12C renal. For the same compound, the TGI in the assay on UO-31 renal is above 100 µM; with CAKI-1 renal, above 100 µM; with OVCAR-8 ovarian it was above 100 µM; in the assay with U251 CNS, 37.1 µM; in the assay with RXF 393 renal, above 100 µM; with UACC-257 melanoma, above 100 µM. Moreover, the TGI in the assay on NCI-H460 lung, in the assay with HCT-116 colon and with SN12C renal was above 100 µM throughout.
`COc1cc2c3c(n(CCCN)c(=O)c2cc1OC)-c1ccc(C#N)cc1C3=O`: the GI50 in the assay on UO-31 renal is 19.1 µM; with CAKI-1 renal, 34.9 µM; in the assay on OVCAR-8 ovarian, 5.54 µM; in the assay on U251 CNS, 13 µM; in the assay with UACC-257 melanoma it was 28.5 µM; with NCI-H460 lung, 7.16 µM. Besides, the figures for the GI50 in the assay with HCT-116 colon, in the assay on SK-OV-3 ovarian and in the assay with SN12C renal were 15.8 µM, 12.7 µM and 16.8 µM, respectively. Moreover, the TGI with UO-31 renal was 71.2 µM; in the assay on CAKI-1 renal, above 100 µM; in the assay on OVCAR-8 ovarian, 24.9 µM; in the assay on U251 CNS it was 28.4 µM; in the assay with UACC-257 melanoma it was above 100 µM; in the assay on NCI-H460 lung it was 26.9 µM. The TGI in the assay with HCT-116 colon was 32.3 µM; in the assay with SK-OV-3 ovarian, 28 µM; in the assay with SN12C renal it was 32.8 µM.
For `Cc1nnc(NS(=O)(=O)c2ccc(N=Nc3cc(N=Nc4ccc(S(=O)(=O)Nc5nnc(C)s5)cc4)c4c(NC(=O)C(Cl)Cl)cccc4c3OC(=O)C(Cl)Cl)cc2)s1` (tested in a mixture with another compound), the TGI is above 100 µM in the assay on UO-31 renal; above 100 µM in the assay on CAKI-1 renal; 43.7 µM in the assay on OVCAR-8 ovarian; above 100 µM with U251 CNS; 55.9 µM with RXF 393 renal; above 100 µM in the assay on UACC-257 melanoma. Besides, the TGI in the assay with NCI-H460 lung was above 100 µM; in the assay with HCT-116 colon, 41.7 µM; in the assay on SN12C renal, above 100 µM.
Take `COc1ccc(CN2CC(C)(C)C2=O)c(OC)c1`: the TGI in the assay with UO-31 renal, in the assay with OVCAR-8 ovarian, in the assay with U251 CNS, in the assay on RXF 393 renal, in the assay on UACC-257 melanoma and with NCI-H460 lung was above 100 µM each time. Moreover, the TGI with HCT-116 colon, with SK-OV-3 ovarian and in the assay with SN12C renal was above 100 µM throughout.
Take `OCC1OC(n2cnc3c2NC=NC[C@H]3O)C(Cl)C1O` (some centres not stated): the TGI in the assay with UO-31 renal, in the assay with CAKI-1 renal, in the assay on OVCAR-8 ovarian, in the assay with U251 CNS, with UACC-257 melanoma and in the assay with NCI-H460 lung was above 100 µM each time. The TGI with HCT-116 colon and in the assay with SN12C renal was above 100 µM in each case.
Consider `CCOC(=O)N[C@@H]1C(CC(=O)OC)O[C@H]2OC(C)(C)O[C@H]21` (some centres not stated), for which the TGI in the assay with UO-31 renal, in the assay with CAKI-1 renal, in the assay with U251 CNS, with RXF 393 renal, in the assay with UACC-257 melanoma and in the assay with NCI-H460 lung was above 100 µM in each case. The TGI in the assay with SK-OV-3 ovarian and in the assay with SN12C renal was above 100 µM each time.
